Data set [1] deals with lymphocytic leukemia P388. As to conditions: Wani et al. 1973; cited from earlier work.
The test system of data set [2] is cultivated cells of human epidermoid carcinoma of the mouth (KB). Description: KB Cell Culture Screen (NCI Protocol 1.600). It is filed as cell-based. Conditions: for IC50: Homo sapiens, KB, 72 h, 3 days after drug addition, activity indicated for ED50 ≤30 μg./ml., read-out: ED50 (dose that inhibits growth to 50% of control growth). As for the experimental part:
The KB Cell Culture Screen used in guiding the above-described fractionations was conducted in accordance with the National Cancer Institute (NCI) Protocol 1.600 [Geran et al., Cancer Chemother. Rep., Part 3, 3:17 (1972)] in which the effectiveness of the test compounds against cultivated cells of human epidermoid carcinoma of the mouth was evaluated. The results of this procedure are expressed as the dose that inhibits growth to 50% of control growth by 3 days after drug addition. Such a dose is referred to as ED50 and activity is indicated for ED50 levels of ≤30 μg./ml. The smaller the ED50 level, the more cytotoxic the test material. The activities of the crystallized compounds isolated above are reported below in Table III.

For data set [3], the system named is lymphocytic leukemia P388. Description: PS system against lymphocytic leukemia P388 in mice (NCI Protocol 1.200). In kind it is in vivo. As to conditions: i.p. once a day for 9 days. As for the experimental part: Another indication of fraction activity is the effectiveness in the PS system against lymphocytic leukemia P388 in mice. These assays are conducted according to the NCI Protocol 1.200 described in Geran et al., supra. Starting 24 hours after the tumor implantation, previously determined doses of each compound were injected intraperitoneally once a day for 9 days. Survival time of treated leukemic mice is compared to that of untreated mice (T/C×100). A T/C value of 100% indicates no activity. A T/C value greater than 100% means that the treated mice are surviving longer than the control mice. A compound giving a T/C value greater than 125% is indicative of activity as defined by the NCI Protocols, above.

The test system of a further data set is B16 melancarcinoma. Description: B1 system against B16 melancarcinoma in mice (NCI Protocol 1.300). It is filed as in vivo. Conditions: i.p. once a day for 9 days, vehicle Klucel, male B6C3F1 mice. As for the experimental part: Trewiasine was also evaluated in the B1 system against B16 melancarcinoma in mice. This assay is conducted in accordance with the NCI Protocol 1.300 described in Geran et al., supra. Starting 24 hours after the tumor implantation, predetermined doses of the compound were injected intraperitoneally once a day for 9 days. The results are reported in Table V below as the percent T/C.

Here are results for 5 compounds from patent US4313946A, “Chemotherapeutically active maytansinoids from Trewia nudiflora” (priority 1981, dated 1982).

Converted amounts (≈) assume the structure as drawn. “Also recorded” adds a separate entry of the source.

Take `COc1cc2cc(c1Cl)N(C)C(=O)CC(OC(=O)C(C)N(C)C(=O)C(C)C)C1(C)OC1C(C)C1CC(O)(NC(=O)O1)C(OC)C=CC=C(C)C2OC(C)=O` (stereo not drawn) [colubrinol acetate]: in data set [1], the “activity against lymphocytic leukemia P388” value is given as “activity against lymphocytic leukemia P388 at the microgram per kilogram level”.

For the compound `COc1cc2cc(c1Cl)N(C)C(=O)CC(OC(=O)C(C)N(C)C(=O)C(C)C)C1(C)OC1C(C)C1CC(O)(NC(=O)O1)C(OC)C=CC=C(C)C2O` (stereo not drawn) [colubrinol], the “activity against lymphocytic leukemia P388” value in data set [1] was “activity against lymphocytic leukemia P388 at the microgram per kilogram level”.

Usually T/C stands for the result in the treated group divided by that in the control group, in per cent. As to `C=C(C)C(=O)N(C)C(C)C(=O)OC1CC(=O)N(C)c2cc(cc(OC)c2Cl)C(OC)C(C)=CC=CC(OC)C2(O)CC(OC(=O)N2)C(C)C2OC12C` (stereo not drawn) [dehydrotrewiasine], the IC50 in data set [2] was less than 10 ng/mL. The T/C was 120% in data set [3] (4.00 μg./kg./inj., vehicle biological saline, male CDF1 mice); 127% in data set [3] (8.00 μg./kg./inj., vehicle biological saline, male CDF1 mice); 120% in data set [3] (16.00 μg./kg./inj., vehicle biological saline, male CDF1 mice); 145% in data set [3] (32.00 μg./kg./inj., vehicle biological saline, male CDF1 mice).

For `COc1cc2cc(c1Cl)N(C)C(=O)CC(OC(=O)C(C)NC(=O)C(C)C)C1(C)OC1C(C)C1CC(O)(NC(=O)O1)C(OC)C=CC=C(C)C2OC` (stereo not drawn) [demethyltrewiasine], the IC50 in data set [2] was less than 10 ng/mL.

In the case of `COc1cc2cc(c1Cl)N(C)C(=O)CC(OC(=O)C(C)N(C)C(=O)C(C)C)C1(C)OC1C(C)C1CC(O)(NC(=O)O1)C(OC)C=CC=C(C)C2OC` (stereo not drawn) [trewiasine, 15-methoxymaytanbutine], the IC50 in data set [2] worked out at 0.2 ng/mL (≈ 0.267 nM). In data set [2] (KB system, compared with maytansine, maytanbutine and similar compounds), the “cytotoxicity relative to that reported by Kupchan for other maytansinoids” value is reported as “one or more orders of magnitude less; also recorded: at least one order of magnitude less”. In addition, the T/C in data set [3] (4.00 μg./kg./inj., vehicle Klucel, female CDF1 mice) is 163%; in data set [3] (8.00 μg./kg./inj., vehicle Klucel, female CDF1 mice), 140%; in data set [3] (16.00 μg./kg./inj., vehicle Klucel, female CDF1 mice), 154%; in data set [3] (32.00 μg./kg./inj., vehicle Klucel, female CDF1 mice) it was 128%; in data set [3] (64.00 μg./kg./inj., vehicle Klucel, female CDF1 mice) it was 91%; in the data set on B16 melancarcinoma (1.00 μg./kg./inj.), 133%. Besides, the T/C was found to be 140% in the data set on B16 melancarcinoma (2.00 μg./kg./inj.); 157% in the data set with B16 melancarcinoma (4.00 μg./kg./inj.); 185% in the data set with B16 melancarcinoma (8.00 μg./kg./inj.); 172% with B16 melancarcinoma (16.00 μg./kg./inj.); 183% in the data set with B16 melancarcinoma (32.00 μg./kg./inj.).
